Counter-ions that a name gives are not always drawn.
Columns and labels:
[1] = tested on: angiogenesis/capillary network formation; details: in vitro; Alliegro and Glaser, J. Cell Biol. 115: 402a (1991); cited from earlier work
[2] = molecular target: T1, urokinase enzyme Abbokinase (Homo sapiens, UniProt P00749); assay: Determination of Urokinase Inhibition (chromogenic substrate S-2444); type: biochemical; details: substrate S-2444 at 200 μM, pH 7.4, enzyme 2-3 nM, 405 nm, 15 minutes; read-out: Inhibitory Potency Against Urokinase, IC50
T1 construct: purchased Abbott Laboratories, Abbott Park, Ill
Procedure: Distributor of Chromogenix) at 200 μM. […] Four concentrations were chosen, then 5 μl of each were diluted to a total assay volume of 200 μl. […] Several vials were reconstituted as directed on the vial, aliquoted and stored frozen. The enzyme was further diluted in assay buffer and 10 μl was used in the assay. Enzyme concentration in the assay was 2-3 nM. […] The Spectromax® calculated the reaction rates which were used to calculate percent inhibition of the compounds of this invention versus the reaction rate of the enzyme in the absence of any inhibitor. The Ki 's of the inhibitors were calculated from the percent inhibition and previously established Km.

IC50 [2] [nM] | SMILES | inhibit angiogenesis/capillary network formation [1]
– | N=C(N)NC(=O)c1nc(Cl)c(N)nc1N [Amiloride] | angiogenesis/capillary network formation in vitro
192 | N=C(N)c1cc2c(Nc3nccs3)cccc2s1 [Example 2, 4-(1,3-thiazol-2-ylamino)-1-benzothiophene-2-carboximidamide trifluoroacetic acid salt] | –
3220 | N=C(N)c1cc2ccc(C(=O)Nc3ccccc3)cc2s1 [Example 3, 2-[amino(imino)methyl]-N-phenyl-1-benzothiophene-6-carboxamide] | –
680 | CC(C)Oc1cccc(NC(=O)c2ccc3cc(C(=N)N)sc3c2)c1 [Example 4, 2-[amino(imino)methyl]-N-(3-isopropoxyphenyl)-1-benzothiophene-6-carboxamide] | –

Source: US6207701A, “Urokinase inhibitors” (Abbott Laboratories, priority 2000, dated 2001)
